One may read the IC50 as the concentration that gives 50% inhibition. A word on the inhibition: it is the drop in the measured response relative to a control, in per cent.

The target in assay [1] is Interleukin-1 receptor-associated kinase 4 (Homo sapiens, UniProt Q9NWZ3). Kind of assay: Inhibition of recombinant full length human His-tagged IRAK4 expressed in baculovirus expression system using serine/threonine-7 peptide as substrate incubated for 60 mins in presence of ATP by Z'-LYTE assay.
Assay [2] has as its target Cytochrome P450 2C9 (Homo sapiens, UniProt P11712). The assay can be described thus: Inhibition of CYP2C9 (unknown origin). The format is ADME.
The target in assay [3] is Acetylcholinesterase (Homo sapiens) (UniProt P22303). Kind of assay: Inhibition of human recombinant acetylcholine esterase expressed in HEK293 cells at 10 uM using acetylcholine as substrate preincubated for 15 mins followed by substrate addition measured after 20 mins by spectrophotometric analysis relative to control.
Sequence of Acetylcholinesterase (Homo sapiens) (P22303 whole entry): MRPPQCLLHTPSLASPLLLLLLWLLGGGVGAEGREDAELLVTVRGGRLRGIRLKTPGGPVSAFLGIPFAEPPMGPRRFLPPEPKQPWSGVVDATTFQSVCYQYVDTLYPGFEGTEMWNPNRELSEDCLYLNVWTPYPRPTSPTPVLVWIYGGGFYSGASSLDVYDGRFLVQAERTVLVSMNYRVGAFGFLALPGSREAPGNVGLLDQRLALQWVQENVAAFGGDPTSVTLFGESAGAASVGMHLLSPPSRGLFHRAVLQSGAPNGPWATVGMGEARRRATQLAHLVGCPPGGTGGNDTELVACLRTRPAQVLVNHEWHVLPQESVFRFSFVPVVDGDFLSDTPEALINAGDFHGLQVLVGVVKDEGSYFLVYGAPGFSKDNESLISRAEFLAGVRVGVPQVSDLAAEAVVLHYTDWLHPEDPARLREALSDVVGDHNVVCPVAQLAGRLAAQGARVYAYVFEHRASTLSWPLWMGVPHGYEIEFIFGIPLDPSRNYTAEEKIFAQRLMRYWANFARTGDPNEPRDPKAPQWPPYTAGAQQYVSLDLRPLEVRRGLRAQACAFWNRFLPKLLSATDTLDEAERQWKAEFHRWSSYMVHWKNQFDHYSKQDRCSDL
The target in assay [4] is Tyrosine-protein kinase Fgr (Homo sapiens, UniProt P09769). The assay can be described thus: Inhibition of recombinant full length human C-terminal His-tagged FGR expressed in baculovirus expression system using tyrosine-2 peptide as substrate incubated for 60 mins in presence of ATP by Z'-LYTE assay.
Sequence of Tyrosine-protein kinase Fgr (P09769 whole entry): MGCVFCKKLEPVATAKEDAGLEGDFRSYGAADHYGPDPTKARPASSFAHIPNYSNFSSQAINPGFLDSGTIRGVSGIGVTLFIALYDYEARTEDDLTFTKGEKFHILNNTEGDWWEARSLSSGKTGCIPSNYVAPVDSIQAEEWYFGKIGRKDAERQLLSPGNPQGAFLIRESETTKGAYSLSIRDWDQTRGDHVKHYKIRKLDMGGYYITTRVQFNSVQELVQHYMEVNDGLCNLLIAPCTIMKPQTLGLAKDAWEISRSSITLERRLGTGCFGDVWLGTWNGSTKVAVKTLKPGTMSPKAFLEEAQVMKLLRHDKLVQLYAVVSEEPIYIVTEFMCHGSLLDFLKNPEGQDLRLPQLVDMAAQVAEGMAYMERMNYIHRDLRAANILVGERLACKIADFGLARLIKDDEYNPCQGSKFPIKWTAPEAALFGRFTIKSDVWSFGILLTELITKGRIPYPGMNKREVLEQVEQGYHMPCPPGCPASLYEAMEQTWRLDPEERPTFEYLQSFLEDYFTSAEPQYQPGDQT
The target in assay [5] is Tyrosine-protein kinase BTK (Homo sapiens, UniProt Q06187). The assay can be described thus: Inhibition of recombinant full length human His-tagged BTK expressed in baculovirus expression system using tyrosine-2 peptide as substrate incubated for 60 mins in presence of ATP by Z'-LYTE assay.
Assay [6] concerns the target Testis-specific serine/threonine-protein kinase 2 (Homo sapiens, UniProt Q96PF2). Kind of assay: Inhibition of recombinant full length human His-tagged STK22B expressed in baculovirus expression system using serine/threonine-04 peptide as substrate incubated for 60 mins in presence of ATP by Z'-LYTE assay.
Assay [7] deals with Epidermal growth factor receptor (Homo sapiens, UniProt P00533). The assay can be described thus: Inhibition of recombinant human GST-tagged EGFR expressed in baculovirus expression system using tyr-04 peptide as substrate incubated for 60 mins in presence of ATP by Z'-LYTE assay.
The target in assay [8] is Epidermal growth factor receptor (Homo sapiens, UniProt P00533, T790M). Kind of assay: Inhibition of human recombinant GST-tagged EGFR T790M mutant cytoplasmic domain expressed in baculovirus expression system using tyrosine 4 peptide as substrate after 60 mins in presence of ATP FRET based Z'-LYTE assay.
In assay [9] the target is Protein kinase C gamma type (Homo sapiens, UniProt P05129). The assay can be described thus: Inhibition of recombinant full length human GST-tagged PRKCG expressed in insect expression system using serine/threonine-7 peptide as substrate incubated for 60 mins in presence of ATP by Z'-LYTE assay.
The target of assay [10] is Neuropeptide Y receptor type 1 (Homo sapiens) (UniProt P25929). The assay can be described thus: Displacement of [[125I]peptide YY from full length human SK-N-MC cell-derived Y1 neuropeptide receptor at 10 uM measured after 60 mins by radiometric scintillation analysis relative to control. The format is cell-based.
Assay [11] concerns the target Thyrotropin-releasing hormone receptor (Rattus norvegicus) (UniProt Q01717). The assay can be described thus: Inhibition of rat TRH receptor at 10 uM relative to control.
The target in assay [12] is T1, Phosphatidylinositol 4,5-bisphosphate 3-kinase catalytic subunit delta isoform (Homo sapiens, UniProt O00329).
T1 sequence (O00329 whole entry): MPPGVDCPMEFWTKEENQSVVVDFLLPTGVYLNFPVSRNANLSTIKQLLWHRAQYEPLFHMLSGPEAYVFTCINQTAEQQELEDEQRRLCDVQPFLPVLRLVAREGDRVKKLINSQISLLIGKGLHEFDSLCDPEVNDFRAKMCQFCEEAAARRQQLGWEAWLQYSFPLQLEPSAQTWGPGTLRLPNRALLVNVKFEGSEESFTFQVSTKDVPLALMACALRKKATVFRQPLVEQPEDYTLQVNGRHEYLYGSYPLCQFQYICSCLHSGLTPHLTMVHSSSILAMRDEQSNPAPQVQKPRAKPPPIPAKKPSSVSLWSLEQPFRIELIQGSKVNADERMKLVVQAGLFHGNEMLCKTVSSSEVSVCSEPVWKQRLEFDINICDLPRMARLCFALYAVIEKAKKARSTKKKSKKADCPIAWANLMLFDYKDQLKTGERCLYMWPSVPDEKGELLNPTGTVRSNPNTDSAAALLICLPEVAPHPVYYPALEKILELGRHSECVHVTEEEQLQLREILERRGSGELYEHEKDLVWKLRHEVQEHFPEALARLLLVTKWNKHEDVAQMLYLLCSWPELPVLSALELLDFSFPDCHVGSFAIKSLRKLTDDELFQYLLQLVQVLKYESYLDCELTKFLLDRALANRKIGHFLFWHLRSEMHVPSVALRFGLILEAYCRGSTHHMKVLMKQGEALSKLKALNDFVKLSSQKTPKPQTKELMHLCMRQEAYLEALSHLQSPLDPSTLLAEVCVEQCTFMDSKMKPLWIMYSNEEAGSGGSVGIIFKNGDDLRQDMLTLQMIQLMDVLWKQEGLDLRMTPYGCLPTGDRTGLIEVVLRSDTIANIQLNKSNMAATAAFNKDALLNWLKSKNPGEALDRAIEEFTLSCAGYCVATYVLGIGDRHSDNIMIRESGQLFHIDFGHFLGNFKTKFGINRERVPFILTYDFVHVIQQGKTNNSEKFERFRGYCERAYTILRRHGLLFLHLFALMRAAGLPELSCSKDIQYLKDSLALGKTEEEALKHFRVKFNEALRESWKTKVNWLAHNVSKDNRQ
Kind of assay: Inhibition of PI3K delta in human whole blood assessed as inhibition of anti-IgE-stimulated CysLt release in basophils preincubated for 30 mins followed by anti-IgE stimulation and measured after 20 mins. The format is tissue-based.

Assay [13] concerns the target Ephrin type-A receptor 3 (Homo sapiens, UniProt P29320). Kind of assay: Inhibition of tracer 236 binding to recombinant human His-tagged EPHA3 (569 to 976 residues) expressed in baculovirus expression system measured after 60 mins in presence of ATP by Lanthascreen assay. Background: In TR-FRET formats the signal depends on donor and acceptor labels being close together.

Assay [14] has as its target Serine/threonine-protein kinase Nek9 (Homo sapiens, UniProt Q8TD19). Kind of assay: Inhibition of recombinant human GST-tagged NEK9 catalytic domain (347 to 732 residues) expressed in baculovirus expression system using serine/threonine-7 peptide as substrate incubated for 60 mins in presence of ATP by Z'-LYTE assay.
Assay [15] addresses Angiopoietin-1 receptor (Homo sapiens, UniProt Q02763). The assay can be described thus: Inhibition of recombinant human GST-tagged TIE2 (817 to 1101 residues) expressed in baculovirus expression system using tyrosine-5 peptide as substrate incubated for 60 mins in presence of ATP by Z'-LYTE assay.
In assay [16] the target is Homeodomain-interacting protein kinase 1 (Homo sapiens, UniProt Q86Z02). The assay can be described thus: Inhibition of recombinant human GST-tagged HIPK1 catalytic domain expressed in baculovirus expression system using serine/threonine-9 peptide as substrate incubated for 60 mins in presence of ATP by Z'-LYTE assay.
Sequence of Homeodomain-interacting protein kinase 1 (Q86Z02 whole entry, the tested form may be a part): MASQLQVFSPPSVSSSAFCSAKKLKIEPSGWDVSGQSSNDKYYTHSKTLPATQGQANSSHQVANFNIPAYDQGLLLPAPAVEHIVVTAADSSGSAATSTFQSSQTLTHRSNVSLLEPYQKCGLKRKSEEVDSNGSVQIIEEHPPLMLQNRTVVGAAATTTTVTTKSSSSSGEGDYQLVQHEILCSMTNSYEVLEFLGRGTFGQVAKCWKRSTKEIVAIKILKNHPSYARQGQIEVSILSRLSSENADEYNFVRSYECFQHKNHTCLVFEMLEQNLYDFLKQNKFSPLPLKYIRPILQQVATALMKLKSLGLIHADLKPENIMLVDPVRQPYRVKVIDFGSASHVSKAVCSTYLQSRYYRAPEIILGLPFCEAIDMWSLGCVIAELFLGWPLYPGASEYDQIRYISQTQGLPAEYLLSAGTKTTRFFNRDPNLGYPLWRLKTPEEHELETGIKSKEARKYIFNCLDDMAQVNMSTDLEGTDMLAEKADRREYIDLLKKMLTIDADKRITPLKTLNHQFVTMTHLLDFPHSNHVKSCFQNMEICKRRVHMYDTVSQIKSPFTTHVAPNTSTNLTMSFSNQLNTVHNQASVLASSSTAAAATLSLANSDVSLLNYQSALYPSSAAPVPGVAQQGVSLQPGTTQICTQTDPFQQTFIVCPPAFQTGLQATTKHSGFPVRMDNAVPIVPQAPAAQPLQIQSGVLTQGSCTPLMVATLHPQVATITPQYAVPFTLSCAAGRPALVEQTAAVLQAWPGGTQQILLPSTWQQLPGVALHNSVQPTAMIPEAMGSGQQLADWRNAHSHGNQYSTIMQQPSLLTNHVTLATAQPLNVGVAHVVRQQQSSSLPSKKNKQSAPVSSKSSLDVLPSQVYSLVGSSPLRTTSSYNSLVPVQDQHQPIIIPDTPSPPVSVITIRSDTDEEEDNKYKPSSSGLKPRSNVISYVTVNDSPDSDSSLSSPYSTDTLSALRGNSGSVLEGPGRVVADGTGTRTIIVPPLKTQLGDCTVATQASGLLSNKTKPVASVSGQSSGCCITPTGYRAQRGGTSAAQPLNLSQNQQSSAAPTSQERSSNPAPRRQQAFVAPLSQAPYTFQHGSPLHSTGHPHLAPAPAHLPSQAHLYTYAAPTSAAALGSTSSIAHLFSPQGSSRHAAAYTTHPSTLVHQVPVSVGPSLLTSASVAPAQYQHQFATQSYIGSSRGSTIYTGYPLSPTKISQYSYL
Assay [17] addresses MAP/microtubule affinity-regulating kinase 3 (Homo sapiens, UniProt P27448). The assay can be described thus: Inhibition of recombinant full length human GST-tagged MARK3 expressed in baculovirus expression system using serine/threonine-25 peptide as substrate incubated for 60 mins in presence of ATP by Z'-LYTE assay.
The target of assay [18] is 3-phosphoinositide-dependent protein kinase 1 (Homo sapiens, UniProt O15530). The assay can be described thus: Inhibition of full length recombinant His-tagged human PDK1 expressed in baculovirus expression system using Ser/Thr 07 as substrate after 1 hr in presence of ATP by Z'LYTE assay.
Sequence of 3-phosphoinositide-dependent protein kinase 1 (O15530 whole entry): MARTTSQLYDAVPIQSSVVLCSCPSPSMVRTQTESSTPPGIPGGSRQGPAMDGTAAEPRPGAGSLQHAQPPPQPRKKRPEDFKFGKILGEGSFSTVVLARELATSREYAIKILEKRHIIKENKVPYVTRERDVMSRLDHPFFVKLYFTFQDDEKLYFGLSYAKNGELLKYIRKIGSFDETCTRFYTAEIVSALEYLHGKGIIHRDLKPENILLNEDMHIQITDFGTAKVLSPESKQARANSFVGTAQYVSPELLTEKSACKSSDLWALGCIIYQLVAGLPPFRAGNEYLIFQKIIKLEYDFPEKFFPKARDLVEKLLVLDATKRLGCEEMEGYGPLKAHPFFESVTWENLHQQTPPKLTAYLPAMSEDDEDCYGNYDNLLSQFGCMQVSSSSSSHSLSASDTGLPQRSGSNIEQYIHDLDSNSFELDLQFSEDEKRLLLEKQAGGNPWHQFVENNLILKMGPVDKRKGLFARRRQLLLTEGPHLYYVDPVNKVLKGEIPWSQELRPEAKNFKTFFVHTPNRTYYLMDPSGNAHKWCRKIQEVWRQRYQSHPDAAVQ

Sequence of Cytochrome P450 2C9 (P11712 whole entry): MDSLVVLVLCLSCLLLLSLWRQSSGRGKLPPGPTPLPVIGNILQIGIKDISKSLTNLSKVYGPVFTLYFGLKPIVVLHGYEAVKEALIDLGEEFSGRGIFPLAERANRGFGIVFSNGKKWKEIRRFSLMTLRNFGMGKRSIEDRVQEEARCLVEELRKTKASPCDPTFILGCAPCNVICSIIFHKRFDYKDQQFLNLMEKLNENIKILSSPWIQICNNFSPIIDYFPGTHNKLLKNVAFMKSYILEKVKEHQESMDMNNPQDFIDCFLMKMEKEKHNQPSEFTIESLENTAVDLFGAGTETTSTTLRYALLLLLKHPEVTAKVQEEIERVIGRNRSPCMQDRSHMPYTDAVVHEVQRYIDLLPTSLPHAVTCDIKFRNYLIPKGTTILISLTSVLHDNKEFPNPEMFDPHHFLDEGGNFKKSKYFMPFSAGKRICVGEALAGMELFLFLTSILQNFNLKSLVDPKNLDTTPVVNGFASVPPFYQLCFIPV
Sequence of Interleukin-1 receptor-associated kinase 4 (Q9NWZ3 whole entry): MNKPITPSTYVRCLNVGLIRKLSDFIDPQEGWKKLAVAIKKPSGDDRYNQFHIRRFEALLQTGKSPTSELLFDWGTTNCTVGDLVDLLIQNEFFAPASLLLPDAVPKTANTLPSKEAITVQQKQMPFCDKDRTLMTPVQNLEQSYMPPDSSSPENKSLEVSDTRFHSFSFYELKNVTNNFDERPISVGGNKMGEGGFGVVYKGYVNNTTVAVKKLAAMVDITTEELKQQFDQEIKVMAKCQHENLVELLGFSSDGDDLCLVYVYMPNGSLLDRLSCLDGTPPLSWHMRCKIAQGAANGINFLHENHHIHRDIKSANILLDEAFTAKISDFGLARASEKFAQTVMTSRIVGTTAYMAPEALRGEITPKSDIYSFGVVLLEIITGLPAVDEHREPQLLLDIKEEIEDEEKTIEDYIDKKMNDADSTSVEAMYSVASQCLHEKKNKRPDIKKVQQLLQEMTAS
Sequence of Thyrotropin-releasing hormone receptor (Rattus norvegicus) (Q01717 whole entry, canonical isoform): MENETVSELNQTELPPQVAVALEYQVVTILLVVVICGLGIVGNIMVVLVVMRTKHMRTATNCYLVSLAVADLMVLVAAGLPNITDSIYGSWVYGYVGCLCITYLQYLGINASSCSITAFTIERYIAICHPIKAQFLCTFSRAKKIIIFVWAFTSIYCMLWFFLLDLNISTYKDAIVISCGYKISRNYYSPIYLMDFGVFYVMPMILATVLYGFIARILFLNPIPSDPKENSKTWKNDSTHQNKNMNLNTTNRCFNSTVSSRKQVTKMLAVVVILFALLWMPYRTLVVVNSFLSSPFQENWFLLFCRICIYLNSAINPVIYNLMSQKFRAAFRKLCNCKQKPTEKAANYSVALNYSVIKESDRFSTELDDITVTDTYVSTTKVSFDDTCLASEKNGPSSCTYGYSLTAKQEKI

Take `C[C@@H]1C[C@H]1C(=O)N1CCN(c2cnc(C#N)c(-c3cnn(C)c3)n2)C[C@H]1C`: the IC50 is over 100 µM in assay [1]; over 50 µM in assay [2]; 25.4 µM in assay [4]; 39.6 µM in assay [5]; over 100 µM in [6]; over 100 µM in assay [7]. Further, the half-maximal inhibitory concentration (IC50) in assay [8] is over 100 µM; in assay [9] it was over 100 µM; in [12] it was 0.065 µM; in assay [13] it was over 100 µM; in [14], over 100 µM; in assay [15] it was over 100 µM. The IC50 in [16], in assay [17] and in assay [18] was over 100 µM each time. The inhibition in [3] stood at 37%; in assay [10], 10%; in [11], 0%.

The values above are taken from ChEMBL document CHEMBL4602617, “Discovery and optimization of heteroaryl piperazines as potent and selective PI3Kδ inhibitors” (Bioorg Med Chem Lett, 2020).
